Source: PMC3163380, “Design, Synthesis and Biological Evaluation of Novel Pyrimido[4,5-d]pyrimidine CDK2 Inhibitors as Anti-Tumor Agents” (Scientia Pharmaceutica, 2011)

Key:
HS 578T = assay: NCI primary anti-cancer assay (SRB), HS 578T; type: cell-based; settings: Homo sapiens; 10^−5M; Breast Cancer HS 578T; read-out: Growth Inhibition %
Protocol: (§1) Evaluation of anti-cancer activities on pyrimido[4,5-d]pyrimidine derivatives were performed at the National Cancer Institute (NCI) USA. First the newly synthesized compounds have been evaluated in primary anti-cancer assay at 10^−5M concentration against 60 human tumor cell lines then the active compounds were tested at 5 different concentrations against the same 60 human tumor cell lines. The biological data for the newly synthesized compounds are compiled in table 2
(§2) The cytotoxic activity was measured in vitro for the newly synthesized compounds using the SulfoRhodamine-B stain (SRB) assay using the method of Skehan. Cells were plated in 96-multiwell microtiter plate (10^4 cells/well) for 24 h before treatment with the compound(s) to allow attachment of cell to the wall of the plate. Tested compounds were dissolved in DMSO and diluted with saline to the appropriate volume. Triplicate wells were prepared for each individual dose. Monolayer cells were incubated with the compound(s) for 48 h at 37 °C and in atmosphere of 5% CO2. After 48 h, cells were fixed, washed, and stained for 30 min with 0.4% (wt/vol) with SRB dissolved in 1% acetic acid. Unbound dye was removed by four washes with 1% acetic acid, and attached stain was recovered with Tris-EDTA buffer. Color intensity was measured in an ELISA reader. The relation between surviving fraction and drug concentration is plotted to get the survival curve for tumor cell line after the specified time.

CDK2/CyclinA = target: T1, CDK2/CyclinA (Homo sapiens, UniProt P24941); assay: CDK2/cyclinA enzymatic activity inhibition assay (32P-ATP, histone H1); type: biochemical; settings: mean of at least two independent experiments
T1 construct: hexa-histidine (N); made in house; host or cells: sf21 insect cells (baculovirus)

UO-31 = assay: NCI primary anti-cancer assay (SRB), UO-31; type: cell-based; settings: Homo sapiens; 10^−5M; Renal Cancer UO-31; read-out: Growth Inhibition %
Protocol: as §1, §2

SNB-75 = assay: NCI primary anti-cancer assay (SRB), SNB-75; type: cell-based; settings: Homo sapiens; 10^−5M; CNS Cancer SNB-75; read-out: Growth Inhibition %
Protocol: as §1, §2

A549/ATCC = assay: NCI primary anti-cancer assay (SRB), A549/ATCC; type: cell-based; settings: Homo sapiens; 10^−5M; Non-Small Cell Lung Cancer A549/ATCC; read-out: Growth Inhibition %
Protocol: as §1, §2

[1] = target: T2, human EGFR tyrosine kinase domain (Homo sapiens, UniProt P00533); assay: EGFR tyrosine kinase inhibition assay; type: biochemical; settings: mean of at least two independent experiments
T2 construct: C-terminal human EGFR tyrosine kinase domain

T-47D = assay: NCI primary anti-cancer assay (SRB), T-47D; type: cell-based; settings: Homo sapiens, T47D; 10^−5M; Breast Cancer T-47D; read-out: Growth Inhibition %
Protocol: as §1, §2

CDK4/CyclinD = CDK4/CyclinD (Homo sapiens, UniProt P11802); assay: CDK4/CyclinD inhibition assay; type: biochemical; settings: mean of at least two independent experiments
MCF7 = assay: NCI primary anti-cancer assay (SRB), MCF7; type: cell-based; settings: Homo sapiens; 10^−5M; Breast Cancer MCF7; read-out: Growth Inhibition %
Protocol: as §1
as §2, with “The relation between surviving fraction and drug concentration is plotted to get the survival curve for tumor cell line after the specified time.” left out

UACC-257 = assay: NCI primary anti-cancer assay (SRB), UACC-257; type: cell-based; settings: Homo sapiens; 10^−5M; Melanoma UACC-257; read-out: Growth Inhibition %
Protocol: as §1, §2

K-562 = assay: NCI primary anti-cancer assay (SRB), K-562; type: cell-based; settings: Homo sapiens, K562; 10^−5M; Leukemia K-562; read-out: Growth Inhibition %
Protocol: as §1, §2

HOP-92 = assay: NCI primary anti-cancer assay (SRB), HOP-92; type: cell-based; settings: Homo sapiens; 10^−5M; Non-Small Cell Lung Cancer HOP-92; read-out: Growth Inhibition %
Protocol: as §1, §2

RXF 393 = assay: NCI primary anti-cancer assay (SRB), RXF 393; type: cell-based, human; settings: Renal Cancer RXF 393; for inhibition at 10 µM: Homo sapiens, RXF 393, 10^−5M, read-out: Growth Inhibition %
Protocol: as §1, §2

SF-539 = assay: NCI primary anti-cancer assay (SRB), SF-539; type: cell-based; settings: Homo sapiens; 10^−5M; CNS Cancer SF-539; read-out: Growth Inhibition %
Protocol: as §1, §2

MDA-MB-231/ATCC = assay: NCI primary anti-cancer assay (SRB), MDA-MB-231/ATCC; type: cell-based; settings: Homo sapiens; 10^−5M; Breast Cancer MDA-MB-231/ATCC; read-out: Growth Inhibition %
Protocol: as §1, §2

HL-60(TB) = assay: NCI primary anti-cancer assay (SRB), HL-60(TB); type: cell-based; settings: Homo sapiens; 10^−5M; Leukemia HL-60(TB); read-out: Growth Inhibition %
Protocol: as §1, §2

RPMI-8226 = assay: NCI primary anti-cancer assay (SRB), RPMI-8226; type: cell-based; settings: Homo sapiens; 10^−5M; Leukemia RPMI-8226; read-out: Growth Inhibition %
Protocol: as §1, §2

IGROV1 = assay: NCI primary anti-cancer assay (SRB), IGROV1; type: cell-based; settings: Homo sapiens, IGROV-1; 10^−5M; Ovarian Cancer IGROV1; read-out: Growth Inhibition %
Protocol: as §1, §2

OVCAR-8 = assay: NCI primary anti-cancer assay (SRB), OVCAR-8; type: cell-based; settings: Homo sapiens; 10^−5M; Ovarian Cancer OVCAR-8; read-out: Growth Inhibition %
Protocol: as §1, §2

BT-549 = assay: NCI primary anti-cancer assay (SRB), BT-549; type: cell-based; settings: Homo sapiens; 10^−5M; Breast Cancer BT-549; read-out: Growth Inhibition %
Protocol: as §1
as §2, with “The relation between surviving fraction and drug concentration is plotted to get the survival curve for tumor cell line after the specified time.” left out

MOLT-4 = assay: NCI primary anti-cancer assay (SRB), MOLT-4; type: cell-based; settings: Homo sapiens; 10^−5M; Leukemia MOLT-4; read-out: Growth Inhibition %
Protocol: as §1, §2

[2] = tested on: 60 human tumor cell lines; assay: NCI primary anti-cancer assay, summary over tumor cell lines; type: cell-based; settings: 10^−5M, Non-small cell lung cancer, Ovarian cancer, Leukemia and Melanoma lines / different tumor cell lines, read-out: growth inhibitions (range over cell lines)
Protocol: as §1, §2

Chain of CDK4/CyclinD (P11802 whole entry, species assumed): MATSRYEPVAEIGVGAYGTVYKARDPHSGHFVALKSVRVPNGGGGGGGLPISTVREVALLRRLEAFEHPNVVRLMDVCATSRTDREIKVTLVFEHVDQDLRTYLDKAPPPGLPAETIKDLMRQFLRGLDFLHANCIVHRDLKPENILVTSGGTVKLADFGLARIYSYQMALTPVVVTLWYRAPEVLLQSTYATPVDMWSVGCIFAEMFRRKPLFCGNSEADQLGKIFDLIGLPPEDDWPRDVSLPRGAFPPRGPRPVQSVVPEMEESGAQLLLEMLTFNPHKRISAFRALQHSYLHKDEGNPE
Chain of CDK4/CyclinD (P24385 whole entry partner, species assumed): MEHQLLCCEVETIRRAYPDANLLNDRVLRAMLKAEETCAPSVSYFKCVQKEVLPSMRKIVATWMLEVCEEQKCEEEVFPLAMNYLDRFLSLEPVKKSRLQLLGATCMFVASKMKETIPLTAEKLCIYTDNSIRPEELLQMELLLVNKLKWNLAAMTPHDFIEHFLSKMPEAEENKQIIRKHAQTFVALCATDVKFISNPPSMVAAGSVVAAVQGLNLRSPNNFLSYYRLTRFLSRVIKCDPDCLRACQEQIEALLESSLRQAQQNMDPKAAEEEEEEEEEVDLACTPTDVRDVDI
T2 sequence (P00533 712-979 limits assumed): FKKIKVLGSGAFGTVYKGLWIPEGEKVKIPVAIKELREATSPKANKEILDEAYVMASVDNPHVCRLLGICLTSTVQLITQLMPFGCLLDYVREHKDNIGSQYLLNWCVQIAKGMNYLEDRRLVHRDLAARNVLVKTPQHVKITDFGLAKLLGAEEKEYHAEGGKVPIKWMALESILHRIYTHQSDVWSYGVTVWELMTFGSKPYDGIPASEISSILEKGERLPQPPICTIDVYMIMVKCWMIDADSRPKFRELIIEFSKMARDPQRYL

SMILES	IC50 (CDK2/CyclinA)	melting point	inhibition at 10 µM (UO-31)	inhibition at 10 µM (SNB-75)	inhibition at 10 µM (A549/ATCC)	IC50 [1]	inhibition at 10 µM (T-47D)	IC50 (CDK4/CyclinD)	IC50 CDK4/CyclinD (CDK4/CyclinD)	inhibition at 10 µM (UACC-257)	inhibition at 10 µM (K-562)	inhibition at 10 µM (HOP-92)	inhibition at 10 µM (RXF 393)	inhibition at 10 µM (MDA-MB-231/ATCC)	inhibition at 10 µM (HL-60(TB))	inhibition at 10 µM (RPMI-8226)	inhibition at 10 µM (IGROV1)	inhibition at 10 µM (OVCAR-8)	inhibition at 10 µM (MOLT-4)	further results
Cc1cc(C)nc(NS(=O)(=O)c2ccc(Nc3nc(C)c4c(=O)[nH]c(Nc5ccc(S(=O)(=O)O)cc5)nc4n3)cc2)n1 [Compound 7i, 4-{[7-({4-[(4,6-Dimethylpyrimidin-2-yl)sulfamoyl]phenyl}amino)-5-methyl-4-oxo-3,4-dihydro-pyrimido[4,5-d]pyrimidin-2-yl]amino}benzenesulfonic acid]	> 10 µM	> 300 °C	30.6%	23.2%	39.1%	8.1 µM	30.1%	> 10 µM	no activity	–	–	–	–	–	–	–	–	–	–	inhibition at 10 µM (HS 578T): 26.2%
O=c1[nH]c(Nc2ccc(S(=O)(=O)O)cc2)nc2nc(Nc3ccc(NC(=S)Nc4ccccc4)cc3)nc(-c3ccc(O)cc3O)c12 [Compound 7g, 4-{[5-(2,4-Dihydroxyphenyl)-4-oxo-7-({4-[(phenylcarbamothioyl)amino]phenyl}amino)-3,4-dihydropyrimido[4,5-d]pyrimidin-2-yl]amino}benzenesulfonic acid]	6.5 µM	> 300 °C	–	–	–	7.3 µM	–	5.21 µM	very poor activity	32.7%	20.1%	29.1%	–	–	–	–	–	–	–	inhibition at 10 µM (MCF7): 33.3%
O=c1[nH]c(SCc2ccccc2)nc2nc(Nc3ccc(NC(=S)Nc4ccccc4)cc3)nc(-c3ccc(O)cc3O)c12 [Compound 6a, 1-(4-{[7-(Benzylsulfanyl)-4-(2,4-dihydroxyphenyl)-5-oxo-5,6-dihydro-pyrimido[4,5-d]pyrimidin-2-yl]amino}phenyl)-3-phenylthiourea]	5 µM	> 300 °C	–	–	–	9.3 µM	26.9%	> 10 µM	no activity	–	–	103%	33.8%	–	–	–	–	–	–	–
Cc1nc(Nc2ccc(NC(=S)Nc3ccccc3)cc2)nc2nc(SCc3ccccc3)[nH]c(=O)c12 [Compound 6c, 1-(4-{[7-(Benzylsulfanyl)-4-methyl-5-oxo-5,6-dihydropyrimido[4,5-d]pyrimidin-2-yl]amino}-phenyl)-3-phenylthiourea]	1.5 µM	> 300 °C	–	–	42.1%	> 10 µM	–	3.11 µM	–	25.2%	27.9%	–	124%	23.1%	24%	33%	34.3%	–	–	Growth Inhibition % (RXF 393; 10^−5M): 124.01%; inhibition at 10 µM (SF-539): 36.7%
Cc1cc(C)nc(NS(=O)(=O)c2ccc(Nc3nc(-c4ccc(O)cc4O)c4c(=O)[nH]c(SCc5ccccc5)nc4n3)cc2)n1 [Compound 6b, 4-{[7-(Benzylsulfanyl)-4-(2,4-dihydroxyphenyl)-5-oxo-5,6-dihydropyrimido[4,5-d]pyrimidin-2-yl]amino}-N-(4,6-dimethylpyrimidin-2-yl)benzenesulfonamide]	2.8 µM	> 300 °C	–	–	–	5.5 µM	–	2.14 µM	–	–	20.1%	–	–	–	–	–	30.7%	38.7%	–	inhibition at 10 µM (BT-549): 29.1%
O=c1[nH]c(Nc2cccc(Cl)c2)nc2nc(Nc3ccc(NC(=S)Nc4ccccc4)cc3)nc(-c3ccc(O)cc3O)c12 [Compound 7d, 1-[4-({7-[(3-Chlorophenyl)amino]-4-(2,4-dihydroxyphenyl)-5-oxo-5,6-dihydro-pyrimido[4,5-d]pyrimidin-2-yl}amino)phenyl]-3-phenylthiourea]	> 10 µM	> 300 °C	30.7%	–	44.7%	> 10 µM	–	6.88 µM	very poor activity	79.5%	–	–	–	21.4%	–	30.4%	39.7%	26.8%	–	–
Cc1cc(C)nc(NS(=O)(=O)c2ccc(Nc3nc(C)c4c(=O)[nH]c(SCc5ccccc5)nc4n3)cc2)n1 [Compound 6d, 4-{[7-(Benzylsulfanyl)-4-methyl-5-oxo-5,6-dihydropyrimido[4,5-d]pyrimidin-2-yl]amino}-N-(4,6-dimethylpyrimidin-2-yl)benzenesulfonamide]	2.5 µM	> 300 °C	–	–	21.2%	7.8 µM	–	0.66 µM	–	–	–	27%	–	–	–	–	–	–	43.4%	–
Cc1cc(C)nc(NS(=O)(=O)c2ccc(Nc3nc(C)c4c(=O)[nH]c(NCc5ccccc5)nc4n3)cc2)n1 [Compound 7c, 4-{[7-(Benzylamino)-4-methyl-5-oxo-5,6-dihydropyrimido[4,5-d]pyrimidin-2-yl]amino}-N-(4,6-dimethylpyrimidin-2-yl)benzenesulfonamide]	2.6 µM	–	39.5%	43.1%	64.4%	6.6 µM	23.4%	> 10 µM	no activity	71.4%	32.8%	–	–	–	23.1%	50.7%	61.7%	–	22.6%	inhibition at 10 µM [2]: 50 to 70%
Cc1nc(Nc2ccc(NC(=S)Nc3ccccc3)cc2)nc2nc(Nc3cccc(Cl)c3)[nH]c(=O)c12 [Compound 7e, 1-[4-({7-[(3-Chlorophenyl)amino]-4-methyl-5-oxo-5,6-dihydropyrimido[4,5-d]pyrimidin-2-yl}amino)phenyl]-3-phenylthiourea]	0.25 µM	–	–	–	–	4.9 µM	–	2.55 µM	–	–	28.2%	39.6%	113%	–	42.9%	42.8%	–	–	35%	inhibition at 10 µM (HS 578T): 32.9%; inhibition at 10 µM (SF-539): 23.5%
Cc1cc(C)nc(NS(=O)(=O)c2ccc(Nc3nc(C)c4c(=O)[nH]c(Nc5cccc(Cl)c5)nc4n3)cc2)n1 [Compound 7f, 4-({7-[(3-Chlorophenyl)amino]-4-methyl-5-oxo-5,6-dihydropyrimido[4,5-d]pyrimidin-2-yl}amino)-N-(4,6-dimethylpyrimidin-2-yl)benzenesulfonamide]	0.05 µM	> 300 °C	40.3%	28.5%	52%	> 10 µM	–	0.86 µM	–	57.9%	26.5%	34.8%	–	30.4%	21.6%	58.9%	54.4%	21.8%	–	inhibition at 10 µM [2]: 50 to 70%
